Source: ChEMBL document CHEMBL1150152, “Araguspongines K and L, new bioactive bis-1-oxaquinolizidine N-oxide alkaloids from Red Sea specimens of Xestospongia exigua” (J Nat Prod, 2002)
In brackets after ≈: the same amount, converted by molar mass. Activity calls are given as the source filed them. No cut-off for these calls is given here.

Key:
[1] = test system: Mycobacterium tuberculosis; assay: Antitubercular activity against Mycobacterium tuberculosis H37Rv by alamar blue assay; format: functional
[2] = test system: Plasmodium falciparum; assay: Antimalarial activity against Plasmodium falciparum W2; format: functional, organism-based
[3] = test system: Plasmodium falciparum; assay: Antimalarial activity against Plasmodium falciparum D6; format: functional, organism-based

Row | Compound | MIC [1] [µM] | IC50 [2] [µg/mL] | IC50 [3] [µg/mL] | Activity [2] | Activity [3]
1 | O[C@]12CCCCCC[C@@H]3CCN4CCC[C@](O)(CCCCCC[C@@H]5CCN(CCC1)[C@H]2O5)[C@@H]4O3 | 3.94 (≈ 1.89 µg/mL) | 0.28 (≈ 0.585 µM) | 0.67 (≈ 1.4 µM) |  | 
2 | [O-][N+]12CCC[C@]3(O)CCCCCC[C@@H]4CCN5CCC[C@](O)(CCCCCC[C@H](CC1)O[C@@H]32)[C@@H]5O4 (stereo not given in full) |  |  |  | inactive | inactive
3 | CO[C@H]1/C=C/O[C@@]2(C)Oc3c(C)c(O)c4c(O)c(c(/C=N/N5CCN(C)CC5)c(O)c4c3C2=O)NC(=O)/C(C)=C\C=C\[C@H](C)[C@H](O)[C@@H](C)[C@@H](O)[C@@H](C)[C@H](OC(C)=O)[C@@H]1C [RIFAMPIN] | 0.61 (≈ 0.502 µg/mL) |  |  |  | 
4 | [O-][N+]12CCC[C@]3(O)CCCCCC[C@@H]4CCN5CCC[C@@H](CCCCCC[C@H](CC1)O[C@@H]32)[C@@H]5O4 (stereo not given in full) |  |  |  | inactive | inactive
5 | C[C@@H]1CC[C@H]2[C@@H](C)C(=O)O[C@@H]3O[C@@]4(C)CC[C@@H]1[C@]32OO4 [ARTEMISININ] |  | 0.007 (≈ 0.0248 µM) | 0.006 (≈ 0.0213 µM) |  | 
